Reference: patent publication US20240360157A1, “TYK2 INHIBITORS” (BIOGEN MA INC., priority 2021, published 2024)
Where a name gives a salt, the structure may show the parent alone.

Legend:
Format in all cases: biochemical
[1] = target: human JAK1 catalytic kinase (JH1) domain (Homo sapiens (Human), UniProt P23458); assay: ADP-Glo Kinase Assay, recombinant JAK1 catalytic kinase (JH1) domain; conditions: recombinant JH1 domain 4 nM, 35 μM ATP, JAK3-342 peptide, mean, read-out: JAK1 biochem IC50 (nM) Mean
Chain of human JAK1 catalytic kinase (JH1) domain (P23458 875-1153): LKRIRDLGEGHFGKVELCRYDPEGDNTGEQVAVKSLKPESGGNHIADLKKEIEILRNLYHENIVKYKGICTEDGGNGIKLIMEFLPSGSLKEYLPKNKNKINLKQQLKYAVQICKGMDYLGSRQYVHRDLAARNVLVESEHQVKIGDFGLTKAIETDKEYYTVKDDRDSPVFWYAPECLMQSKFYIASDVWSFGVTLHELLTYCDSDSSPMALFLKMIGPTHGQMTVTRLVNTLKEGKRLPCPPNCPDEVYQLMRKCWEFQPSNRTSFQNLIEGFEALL
Description: (§1) Compounds of the disclosure were assessed for their ability to inhibit TYK2, JAK1, JAK2, and JAK3 activity. The inhibitory properties of the compounds of the disclosure described herein can be evidenced by testing in any one of the following protocols.
(§2) The kinase activity of recombinantly generated catalytic kinase (also known as JH1) domain of human JAK1, JAK2, JAK3 and TYK2 were evaluated in a plate-based assay using the ADP-Glo™ Kinase Assay platform. Specifically, 4 nM of recombinant JAK1 kinase domain is used to phosphorylate 50 μM of a JAK3-342 (sequence ALVDGYFRLTT) peptide in the presence of 35 μM ATP. Catalytic activities of recombinant JAK2, JAK3 and TYK2 kinase domain (0.2, 0.3 and 2 nM, respectively) are evaluated by the phosphorylation status of the JAK3-974 (50 μM; sequence LPLDKDYYVVR) peptide with the addition of ATP (15, 4 and 10 μM, respectively). The reactions proceed for 100 minutes and the catalytic activity is quantified by first depleting the unused ATP, converting the hydrolyzed ADP into ATP to generate luminescence in a luciferase reaction; which is the basis of the ADP-Glo platform. Compounds are tested at either 10 μM or 1 μM top concentration, 11 points of 3-fold dilution. The data is normalized and the percent activity versus log concentration of compound is fitted with a 4-parameter logistic model to generate a curve and an IC50 value.

[2] = target: human JAK2 catalytic kinase (JH1) domain (Homo sapiens (Human), UniProt O60674); assay: ADP-Glo Kinase Assay, recombinant JAK2 catalytic kinase (JH1) domain; conditions: recombinant JH1 domain 0.2 nM, 15 μM ATP, JAK3-974 peptide, mean, read-out: JAK2 biochem IC50 (nM) Mean
Chain of human JAK2 catalytic kinase (JH1) domain (O60674 849-1124): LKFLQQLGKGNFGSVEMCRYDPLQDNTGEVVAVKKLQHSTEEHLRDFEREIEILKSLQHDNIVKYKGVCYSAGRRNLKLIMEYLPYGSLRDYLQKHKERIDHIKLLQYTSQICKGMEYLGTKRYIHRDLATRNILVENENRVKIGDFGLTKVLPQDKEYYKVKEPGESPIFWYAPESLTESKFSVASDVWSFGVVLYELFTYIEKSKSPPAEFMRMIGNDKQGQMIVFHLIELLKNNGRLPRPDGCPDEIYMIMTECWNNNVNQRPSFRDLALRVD
Description: as §1, §2

[3] = target: human TYK2 catalytic kinase (JH1) domain (Homo sapiens (Human), UniProt P29597); assay: ADP-Glo Kinase Assay, recombinant TYK2 catalytic kinase (JH1) domain; conditions: recombinant JH1 domain 2 nM, 10 μM ATP, JAK3-974 peptide, mean, read-out: TYK2 biochem IC50 (nM) Mean
Chain of human TYK2 catalytic kinase (JH1) domain (P29597 897-1176): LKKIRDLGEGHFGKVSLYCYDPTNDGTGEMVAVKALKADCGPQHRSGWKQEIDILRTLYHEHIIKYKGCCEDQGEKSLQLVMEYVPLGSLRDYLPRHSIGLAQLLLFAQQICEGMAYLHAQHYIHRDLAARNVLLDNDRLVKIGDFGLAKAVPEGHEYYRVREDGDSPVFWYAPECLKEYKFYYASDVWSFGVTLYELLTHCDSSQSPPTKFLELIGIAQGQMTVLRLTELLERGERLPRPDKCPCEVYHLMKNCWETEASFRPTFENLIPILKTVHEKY
Description: as §1, §2

[4] = target: human JAK3 catalytic kinase (JH1) domain (Homo sapiens (Human), UniProt P52333); assay: ADP-Glo Kinase Assay, recombinant JAK3 catalytic kinase (JH1) domain; conditions: recombinant JH1 domain 0.3 nM, 4 μM ATP, JAK3-974 peptide, mean, read-out: JAK3 biochem IC50 (nM) Mean
Chain of human JAK3 catalytic kinase (JH1) domain (P52333 822-1111): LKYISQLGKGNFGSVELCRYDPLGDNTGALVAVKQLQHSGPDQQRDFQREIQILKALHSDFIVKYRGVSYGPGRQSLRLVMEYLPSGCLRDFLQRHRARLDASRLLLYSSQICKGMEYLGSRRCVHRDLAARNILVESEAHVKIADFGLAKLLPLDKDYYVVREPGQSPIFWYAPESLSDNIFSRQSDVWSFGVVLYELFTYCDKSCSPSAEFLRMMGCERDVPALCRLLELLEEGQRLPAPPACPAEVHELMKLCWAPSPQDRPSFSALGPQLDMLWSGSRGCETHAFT
Description: as §1, §2

SMILES | IC50 [1] [nM] | IC50 [2] [nM] | IC50 [3] [nM] | IC50 [4] [nM]
CCC(=O)N1C2CCC1CN(c1ncnn3cc(-c4cnn(C(F)F)c4)cc13)C2 [Example 41, 1-(3-(6-(1-(difluoromethyl)-1H-pyrazol-4-yl)pyrrolo[2,1-f][1,2,4]triazin-4-yl)-3,8-diazabicyclo[3.2.1]octan-8-yl)propan-1-one] | 2260 | 8760 | 560 | 8430
O=C(C1CC1)N1C2CCC1CN(c1ncnn3cc(-c4cnn(C(F)F)c4)c(F)c13)C2 [Example 163] | 5120 | 10000 | 746 | 10000
Cc1cc(-c2cc3c(N4CC5CCC(C4)N5C(=O)C4CC4)ncnn3c2)on1 [Example 158, Cyclopropyl(3-(6-(3-methylisoxazol-5-yl)pyrrolo[2,1-f][1,2,4]triazin-4-yl)-3,8-diazabicyclo[3.2.1]octan-8-yl)methanone] | 8060 | 10000 | 656 | 10000
CC1(C(=O)N2C3CCC2CN(c2ncnn4cc(-c5cnn(C(F)F)c5)cc24)C3)CCC1 [Example 52, (3-(6-(1-(difluoromethyl)-1H-pyrazol-4-yl)pyrrolo[2,1-f][1,2,4]triazin-4-yl)-3,8-diazabicyclo[3.2.1]octan-8-yl)(1-methylcyclobutyl)methanone] | 6480 | 9080 | 425 | 9370
O=C([C@@H]1C[C@H]1F)N1C2CCC1CN(c1ncnc3[nH]c(-c4cnn(C(F)F)c4)cc13)C2 [Example 221, (3-(6-(1-(difluoromethyl)-1H-pyrazol-4-yl)-7H-pyrrolo[2,3-d]pyrimidin-4-yl)-3,8-diazabicyclo[3.2.1]octan-8-yl)((1S,2R)-2-fluorocyclopropyl)methanone] | 82 | 73 | 2.8 | 461
Cn1cc(-c2cc3c(N4CC5CCC(C4)N5C(=O)[C@@H]4C[C@H]4F)ccnn3c2)cn1 [Example 159, ((1S,2R)-2-fluorocyclopropyl)(3-(6-(1-methyl-1H-pyrazol-4-yl)pyrrolo[1,2-b]pyridazin-4-yl)-3,8-diazabicyclo[3.2.1]octan-8-yl)methanone] | 51 | 30 | 1.1 | 263
COc1cc(-c2cc3c(N4CC5CCC(C4)N5S(=O)(=O)C4CC4)ccnn3c2)ccn1 [Example 190] | 324 | 280 | 64.4 | 2750
Cn1ncc(-c2cc3c(N4CC5CCC(C4)N5C(=O)[C@@H]4C[C@H]4F)ccnn3c2)c1F [Example 121, (3-(6-(5-fluoro-1-methyl-1H-pyrazol-4-yl)pyrrolo[1,2-b]pyridazin-4-yl)-3,8-diazabicyclo[3.2.1]octan-8-yl)((1S,2R)-2-fluorocyclopropyl)methanone] | 117 | 113 | 4.7 | 606
O=C([C@@H]1C[C@H]1F)N1C2CCC1CN(c1ccnc3[nH]c(C4CC4)nc13)C2 [Example 208, (3-(2-cyclopropyl-3H-imidazo[4,5-b]pyridin-7-yl)-3,8-diazabicyclo[3.2.1]octan-8-yl)((1S,2R)-2-fluorocyclopropyl)methanone] | 716 | 772 | 85.4 | 6420
O=C(C1CCC1)N1C2CCC1CN(c1ncnn3cc(-c4cnn(C(F)F)c4)cc13)C2 [Example 51, cyclobutyl(3-(6-(1-(difluoromethyl)-1H-pyrazol-4-yl)pyrrolo[2,1-f][1,2,4]triazin-4-yl)-3,8-diazabicyclo[3.2.1]octan-8-yl)methanone] | 2830 | 9130 | 407 | 7870
COc1ccc(-c2cc3c(N4CC5CCC(C4)N5C(=O)C4CC4)ncnn3c2)cc1C#N [Example 185] | 2540 | 10000 | 398 | 10000
O=C([C@@H]1C[C@H]1F)N1C2CCC1CN(c1ccnc3[nH]c(-c4ccnnc4)nc13)C2 [Example 207, ((1S,2R)-2-fluorocyclopropyl)(3-(2-(pyridazin-4-yl)-3H-imidazo[4,5-b]pyridin-7-yl)-3,8-diazabicyclo[3.2.1]octan-8-yl)methanone] | 126 | 150 | 39.6 | 2680
CCn1ncc(-c2cc3c(N4CC5CCC(C4)N5C(=O)C4CC4)ncnn3c2)c1F [Example 161] | 492 | 2460 | 120 | 1230
Cn1ncc(-c2cc3c(N4CC5CCC(C4)N5C(=O)[C@@H]4C[C@H]4F)ncnn3c2)c1F [Example 97, (3-(6-(5-fluoro-1-methyl-1H-pyrazol-4-yl)pyrrolo[2,1-f][1,2,4]triazin-4-yl)-3,8-diazabicyclo[3.2.1]octan-8-yl)((1S,2R)-2-fluorocyclopropyl)methanone] | 1320 | 1380 | 76.8 | 4040
Cn1cc(-c2cc3c(N4CC5CCC(C4)N5C(=O)[C@@H]4CC4(F)F)ccnn3c2)cn1 [Example 22, ((S)-2,2-difluorocyclopropyl)(3-(6-(1-methyl-1H-pyrazol-4-yl)pyrrolo[1,2-b]pyridazin-4-yl)-3,8-diazabicyclo[3.2.1]octan-8-yl)methanone] | 55 | 32 | 1.8 | 445
N#CC1CC1c1nc2c(N3CC4CCC(C3)N4C(=O)[C@@H]3C[C@H]3F)ccnc2[nH]1 (stereo partly drawn) [Example 215, 2-(7-(8-((1S,2R)-2-fluorocyclopropane-1-carbonyl)-3,8-diazabicyclo[3.2.1]octan-3-yl)-3H-imidazo[4,5-b]pyridin-2-yl)cyclopropane-1-carbonitrile] | 2180 | 5350 | 484 | 10000
CCOC1CC1C(=O)N1C2CCC1CN(c1ncnn3cc(-c4cnn(C(F)F)c4)cc13)C2 (centres unmarked) [Example 35, (3-(6-(1-(difluoromethyl)-1H-pyrazol-4-yl)pyrrolo[2,1-f][1,2,4]triazin-4-yl)-3,8-diazabicyclo[3.2.1]octan-8-yl)(2-ethoxycyclopropyl)methanone trifluoroacetate] | 4660 | 10000 | 856 | 10000
O=C([C@@H]1C[C@H]1F)N1C2CCC1CN(c1ccnn3cc(-c4ccc(=O)n(C(F)F)c4)cc13)C2 [Example 132, 1-(difluoromethyl)-5-(4-(8-((1S,2R)-2-fluorocyclopropane-1-carbonyl)-3,8-diazabicyclo[3.2.1]octan-3-yl)pyrrolo[1,2-b]pyridazin-6-yl)pyridin-2(1H)-one] | 34 | 37 | 3.3 | 452
O=C(C1CC1)N1C2CCC1CN(c1ncnn3cc(-c4cnn(CF)c4)cc13)C2 [Example 155] | 1810 | 5180 | 293 | 4000
O=C(C1CC1)N1C2CCC1CN(c1ccnn3cc(-c4cnn(C(F)(F)F)c4)cc13)C2 [Example 20, cyclopropyl(3-(6-(1-(trifluoromethyl)-1H-pyrazol-4-yl)pyrrolo[1,2-b]pyridazin-4-yl)-3,8-diazabicyclo[3.2.1]octan-8-yl)methanone] | 356 | 532 | 30.2 | 1860
